Assay results from article PMC3280214, “Structure Based Discovery of Small Molecules to Regulate the Activity of Human Insulin Degrading Enzyme” (PLoS ONE, 2012).

Target: T1, IDE (Homo sapiens, UniProt P14735)
T1 construct: made in house; host or cells: E. coli BL21
T1 sequence (P14735 1-1019): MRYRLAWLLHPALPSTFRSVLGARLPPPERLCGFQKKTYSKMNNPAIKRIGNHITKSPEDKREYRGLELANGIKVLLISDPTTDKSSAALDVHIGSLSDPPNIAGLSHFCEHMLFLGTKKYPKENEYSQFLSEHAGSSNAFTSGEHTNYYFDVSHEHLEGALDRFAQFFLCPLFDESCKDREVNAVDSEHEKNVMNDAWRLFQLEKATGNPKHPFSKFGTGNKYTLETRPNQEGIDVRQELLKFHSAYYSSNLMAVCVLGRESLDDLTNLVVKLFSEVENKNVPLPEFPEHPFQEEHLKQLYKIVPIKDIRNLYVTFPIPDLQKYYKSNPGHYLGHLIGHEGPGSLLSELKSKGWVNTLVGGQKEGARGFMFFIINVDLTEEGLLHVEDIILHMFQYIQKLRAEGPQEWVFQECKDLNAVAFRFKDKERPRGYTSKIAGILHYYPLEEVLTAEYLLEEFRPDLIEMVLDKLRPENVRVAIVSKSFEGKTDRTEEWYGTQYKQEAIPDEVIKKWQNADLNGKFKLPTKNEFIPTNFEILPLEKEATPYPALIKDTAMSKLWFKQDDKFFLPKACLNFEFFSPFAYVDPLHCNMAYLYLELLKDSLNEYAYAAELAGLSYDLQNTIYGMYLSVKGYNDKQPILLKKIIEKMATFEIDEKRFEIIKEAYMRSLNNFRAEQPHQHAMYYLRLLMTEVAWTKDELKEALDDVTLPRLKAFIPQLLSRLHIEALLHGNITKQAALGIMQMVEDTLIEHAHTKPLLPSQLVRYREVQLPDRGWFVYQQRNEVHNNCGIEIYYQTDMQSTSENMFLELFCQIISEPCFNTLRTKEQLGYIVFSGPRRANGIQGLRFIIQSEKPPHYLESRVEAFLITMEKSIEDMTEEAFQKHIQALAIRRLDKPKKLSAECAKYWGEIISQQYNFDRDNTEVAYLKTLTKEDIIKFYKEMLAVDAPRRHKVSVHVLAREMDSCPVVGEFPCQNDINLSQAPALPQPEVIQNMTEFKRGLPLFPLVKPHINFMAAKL
Test: Enzymatic competition assay with bradykinin
Type: biochemical
Conditions: bradykinin 2.1, 4.2 and 8.4 mM; varying D10 (0–50 µM)
Source text: Since D10 has been found as the strongest activator of IDE towards the proteolysis of insulin, we analyzed the binding site of the compound D10 for the further analysis. According to the computational results, D10 binds to Gln363 at the IDE exosite and His332 (Fig. 1D). We carried out site-directed mutagenesis by replacing these amino acids into Ala in order to verify that D10 indeed binds to this region via these amino acids. We first mutated Gln363 to Ala and then expressed and purified mutant protein through nickel resin. The effect of D10 on the proteolytic activity of mutant IDE (Gln363Ala) was measured towards FITC-insulin-mAb degradation. […] The activation was about 49-fold in the presence of D10 with wild type IDE (Fig. 2B). Although mutant IDE activity was less responsive to D10 compound compared to wild type IDE, it appeared as if D10 were interacting with IDE through […] and could enhance the activity of mutant IDE. Therefore, we generated a double mutant IDE (Gln363Ala, His332Ala) in order to eliminate the binding of D10 to the exosite region completely. […]
The effect of the bradykinin on the clearance of insulin was measured in the presence of compound D10. […] The fluorescence increase was monitored by using Fluoroskan Ascent FL microplate reader (Thermo).

Question: Which “decrease of insulin degradation in presence of compound when bradykinin is added” value does the source give for `Cc1nn(-c2ccccc2)c2nc(-c3cccc([N+](=O)[O-])c3)n3c4ccccc4nc3c2c1=O` [Compound D10] here?
Answer: The value was “about 50%”.
